Legend:
Plasmodium falciparum [1] = assay: NOVARTIS: Inhibition of Plasmodium falciparum 3D7 (drug-susceptible) proliferation in erythrocyte-based infection assay; type: functional, organism-based; settings: Plasmodium falciparum, 3D7
Plasmodium falciparum [2] = assay: NOVARTIS: Inhibition of Plasmodium falciparum W2 (drug-resistant) proliferation in erythrocyte-based infection assay; type: functional, organism-based; settings: Plasmodium falciparum, W2; read-out: EC50
[3] = NOVARTIS: Cytotoxicity against human hepatocellular carcinoma cell line (Huh7); type: toxicity, cell-based, Huh-7; settings: Huh7 cells (hepatocellular carcinoma cell line)

| Compound | EC50 (Plasmodium falciparum [1]) [nM] | EC50 (Plasmodium falciparum [2]) [nM] | CC50 [3] [nM] |
| --- | --- | --- | --- |
| Cc1cc(/C=C2\SC(=Nc3ccccc3)NC2=O)c(C)n1-c1cccc([N+](=O)[O-])c1 | 682 | 897 | > 100000 |
| CCN1CCN(c2ccc(Nc3c4ccccc4nc4ccccc34)cc2)CC1 | 50.7 | 160 | 17400 |
| Cc1nc([P+](c2ccccc2)(c2ccccc2)c2ccccc2)c(SCc2ccccc2)o1.[O-][Cl+3]([O-])([O-])[O-] | 456 | 621 | 68300 |
| COc1ccc(C(NC(=O)COc2ccccc2)c2cc(Cl)c3cccnc3c2O)cc1 (configuration not stated) | 3570 | 918 | > 100000 |
| Fc1ccc2[nH]c3c(NCCN4CCCCC4)ncnc3c2c1 | 154 | 214 | 23700 |
| Cc1cc(C)cc(Nc2cc(C)nc3ncnn23)c1 | 1220 | 901 | > 100000 |
| O=C(Nc1ccc(-c2nc3ccccc3[nH]2)cc1)c1ccc(-c2cccc([N+](=O)[O-])c2)o1 | 2240 | 924 | > 100000 |
| Cc1cc(OC(C)C(=O)N2CCc3ccccc32)ccc1Cl (configuration not stated) | 897 | 926 | > 100000 |
| O=[N+]([O-])c1ccc(-c2ccc(C=NNc3nc(Nc4ccccc4)nc(Nc4ccccc4)n3)o2)cc1 | 875 | 933 | > 100000 |
| Cc1cccn2c(NCc3ccccc3)c(-c3ccccc3OC(=O)C(C)Cl)nc12 (configuration not stated) | 764 | 925 | > 100000 |
| Cn1nc(C(=O)NCc2ccccc2)c2c1CCN(Cc1cccc(O)c1)C2 | > 6500 | 935 | > 100000 |
| CN(C)CCCNc1ncnc2c1[nH]c1ccccc12 | 233 | 934 | > 100000 |
| Oc1ccc(Br)cc1C=NNc1nc2ccccc2[nH]1 | 536 | 504 | 54000 |
| N#Cc1c(-c2ccccc2)cc(N2CCN(C3CCCCC3)CC2)n2c1nc1ccccc12 | 234 | 932 | > 100000 |
| COc1ccc(C2C(C(=O)Nc3cccc(Cl)c3)c3ccccc3C(=O)N2C2CCCCC2)cc1 (configuration not stated) | 1550 | 930 | > 100000 |
| CCN1CCC(N2CCC(n3c(Cc4ccccc4OC)nc4cc(F)ccc43)CC2)CC1 | 413 | 350 | 37700 |
| C=CCc1cccc(C=NNc2nc3ccccc3[nH]2)c1O | 657 | 928 | > 100000 |
| OC(CN1CCOCC1)Cn1c2ccc(Br)cc2c2cc(Br)ccc21 (configuration not stated) | 991 | 440 | 47400 |
| Cc1ccc(Cn2c(C)c3cnn(CC(=O)O)c(=O)c3c2C)cc1 | > 9010 | 928 | > 100000 |
| O=C(Cn1c2ccccc2c(=O)c2ccccc21)Nc1ccc(Cl)cc1C(=O)c1ccccc1 | 817 | 925 | > 100000 |
| CCc1ccc(O)c(-c2cc(C(=O)Nc3cccnc3)[nH]n2)c1 | 742 | 910 | > 100000 |
| CN(C)CCCN(Cc1cc2cc3c(cc2[nH]c1=O)OCO3)C(=S)Nc1cccc(Cl)c1 | 978 | 918 | > 100000 |
| CN(C)CCNC(=S)Nc1cccc(C(F)(F)F)c1 | 4030 | 897 | > 100000 |
| COc1cccc(-c2ccc(O)c(CN(C)CC(O)c3ccccc3)c2)n1 (configuration not stated) | 246 | 90.4 | > 10000 |
| COc1cccc(OCC(=O)NN=C(C)CC(=O)NCc2ccco2)c1 | > 12500 | 901 | > 100000 |
| COc1ccc(/C=C/C(=O)NC(=O)c2ccccc2O)cc1 | 118 | 92.1 | > 10000 |
| C[n+]1c(/C=C/c2ccc(F)cc2)ccc2ccccc21 | 104 | 90.7 | > 10000 |

| Compound | EC50 (Plasmodium falciparum [1]) [nM] | EC50 (Plasmodium falciparum [2]) [nM] | CC50 [3] [nM] |
| --- | --- | --- | --- |
| Cc1cccc(NC(=O)CCCn2c(=O)c3cccn3c3ccccc32)c1C | 778 | 906 | > 100000 |
| c1ccc2[nH]c(Sc3ncnc4sc5c(c34)CCC5)nc2c1 | 6840 | 909 | > 100000 |
| CCCCCCC[N+](CC)(CC)CCCCc1ccc(Cl)cc1 | 431 | 90.9 | > 10000 |
| CC(=O)N(C1=C(N2CCOCC2)C(=O)c2ccccc2C1=O)c1cc(C)cc(C)c1 | 40.1 | 63.3 | 6940 |
| COc1cc(C2C(C(=O)OCC(C)C)=C(C)NC3=C2C(=O)CC(c2ccccc2)C3)cc(Br)c1O (configuration not stated) | 850 | 911 | > 100000 |
| CN(C)c1cc[n+](CC(=O)Nc2ccc(Cl)cc2)cc1 | 549 | 897 | > 100000 |
| O=C(CCl)Nc1ccc(OC(F)F)cc1 | 317 | 162 | 18100 |
| O=C(Nc1ccc(-n2cccn2)cc1)C1CCN(Cc2nc3c(s2)CCCC3)CC1 | 1350 | 894 | > 100000 |
| NNc1nc(NCc2ccccc2)nc(N2CCOCC2)n1 | 71.8 | 89.4 | > 10000 |
| CCCCNC(=O)C1CCC(CN(Cc2c(Cl)cccc2Cl)S(=O)(=O)c2ccc(Br)cc2)CC1 (configuration not stated) | 546 | 916 | > 100000 |
| CCN(CC)c1ccc(N=Cc2ccc(Sc3nc4ccccc4s3)o2)cc1 | 271 | 98.8 | 10800 |
| c1ccc(-c2cc(NCc3ccco3)nc(-c3ccccn3)n2)nc1 | 182 | 91.4 | > 10000 |
| CCn1c(SCc2ccc(Cl)cc2Cl)nc2sc3c(c2c1=O)CCN(C)C3 | 942 | 900 | > 100000 |
| Cc1cc(Cl)ccc1NC(=O)c1ccccc1[N+](=O)[O-] | 2070 | 930 | > 100000 |
| COc1ccc(OCC(=O)Nc2cccc(-c3nc4ncccc4o3)c2)cc1 | 1470 | 935 | > 100000 |
| CCCCCc1ccc(C(=O)Oc2ccccc2-c2nc3cc(C)ccn3c2NC(C)(C)CC(C)(C)C)cc1 | 739 | 93.4 | > 10000 |
| CCSc1nc2sc3c(c2c(=O)n1CC)CCN(C)C3 | 1410 | 923 | > 100000 |
| COc1cc(-c2cc(C)c3c(OC)ccc(OC)c3n2)cc2c1OCCN(C(=O)CCn1nc(C)cc1C)C2 | 2710 | 913 | > 100000 |
| Cc1c(C)c2c(c(C)c1O)CC[C@](C)(CN1CCN(c3cc(N4CCCC4)nc(N4CCCC4)n3)CC1)O2 | 175 | 384 | 42000 |
| CC1(C)CC(=O)C2=C(C1)Nc1ccccc1N(C(=O)Cc1ccccc1)C2c1ccc([N+](=O)[O-])s1 (configuration not stated) | > 1250 | 89.8 | > 10000 |
| COc1ccc(NC(=O)C2=C(C)Nc3c(C(=O)Nc4ccc(C)cc4)cnn3C2c2cccc(Cl)c2)cc1 (configuration not stated) | 2510 | 924 | > 100000 |
| CCNC(=O)NCCSc1nc(-c2ccccc2)c(-c2ccccc2)n1CC | 1630 | 917 | > 100000 |
| CCOC(=O)C1=CN(C)C=C(C(=O)OCC)C1c1cc(Br)c(OCC)c(OC)c1 | 913 | 897 | > 100000 |
| CCC(C)(C)C1CCc2sc3ncnc(NN=Cc4c(Cl)cccc4Cl)c3c2C1 (configuration not stated) | 733 | 904 | > 100000 |
| COc1cc(C(=O)C=CNc2ccc(N(C)C)cc2)cc(OC)c1OC | 2070 | 905 | > 100000 |
| S=C(NC1CCCCC1)NC1CC2CCC(C1)N2Cc1ccccc1 (configuration not stated) | 2970 | 468 | 51400 |
| CCCCCCCCCCCC(=O)N(C)CCCNc1ccnc2cc(Cl)ccc12 | 223 | 27.3 | 3010 |
